Source: ChEMBL document CHEMBL1135557 (Bioorg Med Chem Lett, 2002)
≈ marks a conversion by molar mass, not a printed value.

What was measured:
PC-12 = assay: In vitro cytotoxic activity (growth inhibition) of compound against PC-12 human cancer cell line was determined
HCT-116 = assay: In vitro cytotoxic activity (growth inhibition) of compound against HCT 116 cancer cell line was determined; type: functional; details: Homo sapiens
Tubulin = Tubulin (Sus scrofa, UniProt P02554+P02550); assay: Concentration of compound required to inhibit tubulin polymerization (Microtubule assembly) was determined by the turbidity formation after 20 min of incubation; type: functional
[1] = biological target: Tubulin alpha chain (Sus scrofa) (UniProt P02550); assay: Inhibitory binding percentage of compound towards colchicine site in tubulin using tubulin-[3H]colchicine as radioligand at a concentration of 100 uM
[2] = biological target: Tubulin alpha chain (Sus scrofa) (UniProt P02550); assay: Inhibitory binding percentage of compound towards colchicine site in tubulin using tubulin-[3H]colchicine as radioligand at a concentration of 200 uM

Tubulin alpha chain (Sus scrofa), sequence (P02550 whole entry, looked up): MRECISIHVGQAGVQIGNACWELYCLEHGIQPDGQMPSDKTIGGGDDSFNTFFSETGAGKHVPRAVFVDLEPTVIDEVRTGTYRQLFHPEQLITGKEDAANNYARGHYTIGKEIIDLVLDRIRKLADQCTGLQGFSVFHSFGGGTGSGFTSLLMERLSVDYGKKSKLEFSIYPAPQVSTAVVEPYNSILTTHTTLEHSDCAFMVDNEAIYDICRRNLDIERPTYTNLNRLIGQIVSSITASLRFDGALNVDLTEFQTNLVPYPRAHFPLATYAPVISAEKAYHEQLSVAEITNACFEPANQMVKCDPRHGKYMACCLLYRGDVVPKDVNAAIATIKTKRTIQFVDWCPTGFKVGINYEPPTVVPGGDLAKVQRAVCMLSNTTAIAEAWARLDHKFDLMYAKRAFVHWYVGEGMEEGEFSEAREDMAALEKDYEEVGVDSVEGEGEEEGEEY

For `Cc1c(/C=C/CN2CCN(c3cccc(Cl)c3)CC2)cnn1-c1ncccn1.Cl`, the GI50 (PC-12) was 0.181 µg/mL, the GI50 (HCT-116) was 0.254 µg/mL and the IC50 (Tubulin) was 35.96 µM.
Work on `Cc1c(/C=C/CN2CCN(c3cc(F)cc(F)c3)CC2)cnn1-c1ccnc(N)n1.Cl` yielded a GI50 (PC-12) of 0.0199 µg/mL, a GI50 (HCT-116) of 0.0329 µg/mL and an IC50 (Tubulin) of 3.72 µM.
`CC[C@]1(O)C[C@@H]2CN(CCc3c([nH]c4ccccc34)[C@@](C(=O)OC)(c3cc4c(cc3OC)N(C)[C@H]3[C@@](O)(C(=O)OC)[C@H](OC(C)=O)[C@]5(CC)C=CCN6CC[C@]43[C@@H]65)C2)C1` [VINBLASTINE] showed a GI50 (PC-12) of 0.0102 µg/mL (≈ 0.0126 µM) and a GI50 (HCT-116) of 0.001 µg/mL (≈ 0.00123 µM).
With `Cc1c(/C=C/CN2CCN(c3cc(F)cc(F)c3)CC2)cnn1-c1nccc(N)n1.Cl` the GI50 (PC-12) was 0.0216 µg/mL, the GI50 (HCT-116) was 0.0208 µg/mL and the IC50 (Tubulin) was 11.05 µM.
`Cc1c(/C=C/CN2CCN(c3cc(F)cc(F)c3)CC2)cnn1-c1ncccn1.Cl` showed a GI50 (PC-12) of 0.0625 µg/mL, an Inhibitory binding [1] of 82% and a GI50 (HCT-116) of 0.0701 µg/mL. The Inhibitory binding [2] was 93% and the IC50 (Tubulin) was 9.08 µM.
`COc1cc2c(c(OC)c1OC)-c1ccc(OC)c(=O)cc1[C@@H](NC(C)=O)CC2` [COLCHICINE] was tested, and the GI50 (PC-12) was 0.0315 µg/mL (≈ 0.0789 µM), the Inhibitory binding [1] was 98% and the GI50 (HCT-116) was 0.0084 µg/mL (≈ 0.021 µM). It also gave an Inhibitory binding [2] of 100%.
